In BindingDB's records for PubMed 6292197 (Kyoto University, 1982):

Biological target: T1, Prostaglandin D2 receptor (Rattus norvegicus, UniProt Q9R261)
T1 sequence (Q9R261 whole entry): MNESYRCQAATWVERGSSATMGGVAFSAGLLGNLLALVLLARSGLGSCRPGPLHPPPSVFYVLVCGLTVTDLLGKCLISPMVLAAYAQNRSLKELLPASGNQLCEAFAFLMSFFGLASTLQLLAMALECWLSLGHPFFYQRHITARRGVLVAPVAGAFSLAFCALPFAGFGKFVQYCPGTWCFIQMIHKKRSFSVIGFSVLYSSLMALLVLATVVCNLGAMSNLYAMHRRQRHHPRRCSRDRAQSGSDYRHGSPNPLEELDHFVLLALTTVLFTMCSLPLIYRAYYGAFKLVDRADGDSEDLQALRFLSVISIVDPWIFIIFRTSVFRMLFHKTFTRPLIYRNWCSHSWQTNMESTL

SMILES | Ki
CCCCC[C@H](O)/C=C/C1[C@H](O)C[C@H](O)[C@@H]1C/C=C\CCCC(=O)O (stereo partly drawn) [(Z)-7-[(1R,3R,5S)-3,5-Dihydroxy-2-((E)-(S)-3-hydroxy-oct-1-enyl)-cyclopentyl]-hept-5-enoic acid] | 693 nM
CCCCC[C@H](O)/C=C/[C@@H]1[C@@H](CC(=O)CCCCC(=O)O)[C@@H](O)C[C@H]1O [6-KETO-PROSTAGLANDIN F1ALPHA] | > 10000 nM
CCCCCC(O)C=CC1C(=O)CC(O)C1CCCCCCC(=O)O (stereo unspecified) [NSC_205449] | 523 nM
CCCCC[C@H](O)C=C[C@H]1C=CC(=O)[C@@H]1C/C=C\CCCC(=O)O [(Z)-7-[(1R,5S)-2-oxidanylidene-5-[(E,3S)-3-oxidanyloct-1-enyl]cyclopent-3-en-1-yl]hept-5-enoic acid] | > 10000 nM
CCCCC[C@H](O)/C=C/[C@H]1[C@H](O)CC(=O)[C@@H]1C/C=C\CCCC(=O)O [DINOPROSTONE] | 2950 nM
CCCCCC(O)CC=C1C(=O)C=CC1CC=CCCCC(=O)O (stereo unspecified) [CAS_41598-07-6] | 19 nM
CCCCCC(O)C=CC1=C(CC=CCCCC(=O)O)C(=O)CC1 (stereo unspecified) [NSC_5280881] | > 10000 nM
CCCCCC(O)C=CC1C(=O)CC(O)C1CC=CCCCC(=O)OC (stereo unspecified) [CAS_114676] | 27 nM
CCCCC[C@@H](O)/C=C/[C@H]1[C@H](O)CC(=O)[C@@H]1CCCCCCC(=O)O | 3760 nM
CCCCC[C@H](O)/C=C/[C@H]1OC(O)C[C@H](O)[C@@H]1C/C=C\CCCC(=O)O (stereo partly specified) [THROMBOXANE B2] | 4200 nM
CCCCCC(O)C=CC1C(O)CC2OC(=CCCCC(=O)O)CC21 (stereo unspecified) [NSC_5282411] | 3540 nM
